Where “and” joins values, the source holds several entries; their conditions need not be identical. Equal values may be shown once.
Experiments:
[1] = test system: Capan-1 pancreatic adenocarcinoma xenografts; test: Therapy of Capan-1 tumor xenografts in nude mice; type: in vivo, athymic nude mice; conditions: 0.2 mg/kg SN-38 twice weekly×4 weeks
Protocol: FIG. 3C. […] Animals were treated twice weekly for 4 weeks as indicated by the arrows. Capan-1 mice (N=10) were treated with 0.2 mg/kg ADC and tumors measured weekly.
FIG. 4C. […] Capan-1 (N=10) were treated twice weekly for 4 weeks with the agents indicated.

[2] = test system: diverse metastatic cancers; test: Phase I/II clinical trial of IMMU-132 (Example 9): best response and TTP
Protocol: To optimize cumulative treatment with minimal delays, phase II is focusing on 8 and 10 mg/kg (n=30 and 14, respectively). […] [table]

[3] = Tolerability of multiple subcutaneous injections of IMMU-132 in nude mice; type: in vivo, female nude mice; conditions: s.c. 2 mg or 500 μg twice a week for four weeks
Protocol: One group of two mice received 2 mg injections (HED=8 mg/kg) while a second group of two animals, 500 μg (HED=2 mg/kg). For comparison, one mouse received only saline injections. Each injection (100 μL) was administered at the same location (i.e., right rear flank) twice a week for four weeks. Mice were weighed on the day of injection and the injection site examined for any signs of toxicity (i.e, rash, ulceration, etc.). If any occur, it would be documented by photographing the area. One day after the last injection, the mice were anesthetized and the injection site photographed (FIG. 12). This was repeated one week after the final injection (FIG. 13).

[4] = Tolerability in Cynomolgus monkeys; type: in vivo, Cynomolgus monkeys (Macaca fascicularis)
Protocol: FIG. 5C. Tolerability of hRS7-CL2A-SN-38 in Cynomolgus monkeys. […] All animals were bled on day −1, 3, and 6. Four monkeys were bled on day 11 in the 0.96 mg/kg group, 3 in the 1.92 mg/kg group. Changes in neutrophil counts in Cynomolgus monkeys.
FIG. 5D. Tolerability of hRS7-CL2A-SN-38 in Cynomolgus monkeys. […] All animals were bled on day −1, 3, and 6. Four monkeys were bled on day 11 in the 0.96 mg/kg group, 3 in the 1.92 mg/kg group. Changes in platelet counts in Cynomolgus monkeys.

[5] = type: in vivo, human
Protocol: SN-38 was measured by HPLC.

[6] = test system: triple-negative breast cancer; test: Subcutaneous IMMU-132 in triple-negative breast cancer patients (Example 10); type: in vivo, human
Protocol: Maintenance doses of ADC are administered i.v. or s.c. every two to three weeks or monthly after induction. Alternatively, induction may occur with two to four cycles of i.v. administration at 8-10 mg/kg (each cycle with ADC administration on Days 1 and 8 of two 21-day cycles with a one-week rest period in between), followed by s.c. administration as active dosing one or more times weekly or as maintenance therapy. Dosing may be adjusted based on interim tumor scans and/or by analysis of Trop-2 positive circulating tumor cells.

[7] = Pharmacokinetics and biodistribution of 111In-labeled hRS7-CL2A-SN-38 and hRS7 IgG in nude mice bearing SK-MES-1 tumors; type: in vivo
Protocol: One group was injected intravenously with 20 μCi (250-μg protein) of ^111In-hRS7-CL2A-SN-38, whereas another group received 20 μCi (250-μg protein) of ^111In-hRS7 IgG. At various timepoints mice (5 per timepoint) were anesthetized, bled via intracardiac puncture, and then euthanized. Tumors and various tissues were removed, weighed, and counted by γ scintillation to determine the percentage injected dose per gram tissue (% ID/g). […] Pharmacokinetic analysis on blood clearance was performed using WinNonLin software (Parsight Corp.).

advanced GI cancers = test: Phase I/II trial of IMMU-132 in patients with advanced GI cancers: best response by RECIST and time to progression; type: in vivo, human; conditions: for median TTP: SD patients
Protocol: Patients with metastatic cancers were enrolled after failing standard therapy, starting at a dose of 8.0 mg/kg given on days 1 and 8 of a 3-week cycle. […]

[8] = test system: human urinary bladder carcinoma (5637); test: Efficacy of i.v. vs. s.c. IMMU-132 in 5637 bladder carcinoma xenografts; type: in vivo, athymic nude mice; conditions: for mean tumor volume: day 82; for mice still alive on day 82: N=5; for median survival time (MST): post-therapy initiation
Protocol: 5637 cells were expanded in tissue culture and harvested with trypsin/EDTA. Female athymic nude mice were injected s.c. with 200 μL of 5637 cell suspension mixed 1:1 with matrigel such that 1×10^7 cells was administered to each mouse. Once tumors reached approximately 0.25 cm^3 in size (15 days later), the animals were divided up into three different treatment groups of 4-5 mice each. For the i.v. injections (N=5), mice receive 500 μg i.v. twice a week for four weeks. […] A final group of mice received only saline (N=4) and served as the untreated control. Tumors were measured and mice weighed twice a week. Mice were euthanized for disease progression if their tumor volumes exceeded 1.0 cm^3 in size.

[9] = Phase I/II trial of IMMU-132: MTD and toxicity profile; type: in vivo, human; conditions: 75 patients in the full trial
Protocol: Patients with metastatic cancers were enrolled after failing standard therapy, starting at a dose of 8.0 mg/kg given on days 1 and 8 of a 3-week cycle.

BxPC-3 = test: Signaling events (p21Waf1/Cip1, p53) in BxPC-3 cells; type: cell-based, human
From the text: SN-38 is known to activate several signaling pathways in cells, leading to apoptosis (e.g., Cusack et al., 2001, Cancer Res 61:3535-40; Liu et al. 2009, Cancer Lett 274:47-53; Lagadec et al., 2008, Br J Cancer 98:335-44). Our initial studies examined the expression of 2 proteins involved in early signaling events (p21^Waf1/Cip1 and p53) and 1 late apoptotic event [cleavage of poly-ADP-ribose polymerase (PARP)] in vitro (not shown).

[10] = 48 assessable patients (excluding PDC)
[11] = one gastric cancer patient with SD

Substance: IMMU-132: ADC of the humanized hRS7 anti-Trop-2 antibody conjugated by a pH-sensitive linker (CL2A) to SN-38
- tumor growth vs. saline and hA20-CL2A-SN-38 [1]: significantly inhibited tumor growth
- mice tumor-free at the end of the study ([1]; day 140): 50%
- patients with SD ([2]; 13 CT-assessable PDC patients): 62%
- patients with disease response (total) [2, 10]: 79%
- patients with partial response (PR) [2, 10]: 15%
- median time to progression (TTP) ([2]; PDC patients): 12.7 wks and 11.9 wks
- skin irritation at the site of multiple injections [3]: no evidence of skin irritation
- blood count values ([4]; 2×0.96 mg SN-38/kg, transient decreases): did not fall below normal ranges
- MTD, human equivalent dose ([4]; cynomolgus monkey, in vivo): 2×0.3 to 0.6
- clearance of intact conjugate vs. the IgG ([5]; ELISA): cleared more quickly than the IgG
- time for the conjugate to clear from the serum ([5]; patients): ≤ 3 days
- localized reaction at the administration site ([6]; s.c.): no adverse localized reaction is observed
- average decrease in tumor volume ([6]; s.c. 2 to 4 mg/kg schedules, after two cycles of therapy): 35%
- amount in the tumor compared with hRS7 IgG ([7]; 72 hours (peak uptake)): similar
- half-life shorter than unconjugated hRS7 ([7]; i.v., 250-μg protein): ~40%
- PR (partial response) as best response by RECIST, number of patients (advanced GI cancers; 29 CRC patients (9 at 10 mg/kg, 20 at 8 mg/kg)): 1
- target lesion change of the PR (advanced GI cancers; CRC patient with PR): −65%
- time to progression (TTP) for the PR (advanced GI cancers; CRC patient with PR): ≥ 50 wks
- median TTP (advanced GI cancers; CRC with KRAS mutations): ≥ 19.1 wks
- median TTP for the SD patients (advanced GI cancers; CRC, 14 SD patients (5 continuing)): ≥ 21 wks
- TTP of the PR (advanced GI cancers; esophageal cancer): ≥ 30 wks
- duration of SD in individual patients (advanced GI cancers; esophageal cancer): ≥ 17.4 wks and 21.9 wks and 26.3 wks and 29.9 wks
- ongoing TTP (advanced GI cancers; [11]): ≥ 29 wks
- target lesion reduction (advanced GI cancers; [11]): 19%
- median TTP (advanced GI cancers; pancreatic cancer): 15.0 wks
- mean tumor volume ([8]; i.v. 500 μg twice a week for four weeks): 0.066±0.076 cm^3
- mice still alive on day 82 ([8]; i.v.): 5
- median survival time (MST) ([8]; i.v.): > 67 days
- mean tumor volume ([8]; s.c. 500 μg twice weekly for four weeks): 0.111±0.057 cm^3
- mice still alive on day 82 ([8]; s.c.): 5
- median survival time (MST) ([8]; s.c.): > 67 days
- Grade 3 diarrhea [9]: 6.7%
- Grade 3 neutropenia [9]: 17.3%
- Grade 4 neutropenia [9]: 2.7%
- time of p53 upregulation (BxPC-3): ≤ 24 h
